According to the supplement of paper PMC10307832:

Tests used:
Test in all cases: relative viability (nuclei count vs DMSO), 5 days (fraction); higher = more cells survive
Alisertib + Vorinostat = compound: COc1cc(Nc2ncc3c(n2)-c2ccc(Cl)cc2C(c2c(F)cccc2OC)=NC3)ccc1C(=O)O [Alisertib] + O=C(CCCCCCC(=O)Nc1ccccc1)NO [Vorinostat] (partner 1 µM)
In short: (§1)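 Dosing by pin tool came one day after lung cancer cell lines were seeded in 1536-well plates, using either one drug or a fixed anchor-drug dose plus five library-drug doses (not always all listed) in √10 steps. After 5 days, nuclei were counted on 4× images. Relative viability is treated-well nuclei count divided by vehicle-well nuclei count, and values are medians of duplicate plates.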

Alisertib + Crizotinib = compound: COc1cc(Nc2ncc3c(n2)-c2ccc(Cl)cc2C(c2c(F)cccc2OC)=NC3)ccc1C(=O)O [Alisertib] + C[C@@H](Oc1cc(-c2cnn(C3CCNCC3)c2)cnc1N)c1c(Cl)ccc(F)c1Cl [Crizotinib] (partner 1 µM)
In short: as §1

Alisertib + Tozasertib = compound: COc1cc(Nc2ncc3c(n2)-c2ccc(Cl)cc2C(c2c(F)cccc2OC)=NC3)ccc1C(=O)O [Alisertib] + Cc1cc(Nc2cc(N3CCN(C)CC3)nc(Sc3ccc(NC(=O)C4CC4)cc3)n2)n[nH]1 [Tozasertib] (partner 0.1 µM)
In short: as §1

Alisertib + Navitoclax = compound: COc1cc(Nc2ncc3c(n2)-c2ccc(Cl)cc2C(c2c(F)cccc2OC)=NC3)ccc1C(=O)O [Alisertib] + CC1(C)CCC(c2ccc(Cl)cc2)=C(CN2CCN(c3ccc(C(=O)NS(=O)(=O)c4ccc(N[C@H](CCN5CCOCC5)CSc5ccccc5)c(S(=O)(=O)C(F)(F)F)c4)cc3)CC2)C1 [Navitoclax] (partner 0.5 µM)
In short: as §1

Cell Line	relative viability (Alisertib + Vorinostat; first compound 0.005 µM)	relative viability (Alisertib + Vorinostat; first compound 0.01581 µM)	relative viability (Alisertib + Vorinostat; first compound 0.05 µM)	relative viability (Alisertib + Vorinostat; first compound 0.1581 µM)	relative viability (Alisertib + Vorinostat; first compound 0.5 µM)	relative viability (Alisertib + Crizotinib; first compound 0.005 µM)	relative viability (Alisertib + Crizotinib; first compound 0.01581 µM)	relative viability (Alisertib + Crizotinib; first compound 0.05 µM)	relative viability (Alisertib + Crizotinib; first compound 0.1581 µM)	relative viability (Alisertib + Crizotinib; first compound 0.5 µM)	relative viability (Alisertib + Tozasertib; first compound 0.005 µM)	relative viability (Alisertib + Tozasertib; first compound 0.01581 µM)	relative viability (Alisertib + Tozasertib; first compound 0.05 µM)	relative viability (Alisertib + Tozasertib; first compound 0.1581 µM)	relative viability (Alisertib + Tozasertib; first compound 0.5 µM)	relative viability (Alisertib + Navitoclax; first compound 0.005 µM)	relative viability (Alisertib + Navitoclax; first compound 0.01581 µM)	relative viability (Alisertib + Navitoclax; first compound 0.05 µM)	relative viability (Alisertib + Navitoclax; first compound 0.1581 µM)	relative viability (Alisertib + Navitoclax; first compound 0.5 µM)
SW 1573	0.803	0.288	0.239	0.233	0.109	0.776	0.466	0.434	0.248	0.113	0.135	0.153	0.132	0.147	0.158	0.954	0.737	0.219	0.0904	0.0636
NCI-H441	0.692	0.723	0.373	0.217	0.185	0.626	0.555	0.131	0.178	0.136	0.478	0.366	0.253	0.286	0.227	0.925	0.365	0.106	0.158	0.132
SK-MES-1	0.954	0.976	0.365	0.206	0.216	0.914	0.801	0.673	0.25	0.18	0.819	0.705	0.429	0.207	0.135	1.09	0.892	0.315	0.139	0.0931
NCI-H1355	0.589	0.522	0.525	0.204	0.177	1.08	0.906	0.737	0.215	0.186	0.53	0.462	0.297	0.192	0.217	0.884	0.923	0.633	0.205	0.16
UMC-11	0.262	0.169	0.113	0.118	0.161	0.515	0.285	0.117	0.103	0.0832	0.201	0.23	0.201	0.213	0.219	0.241	0.163	0.121	0.115	0.125
NCI-H2347	0.522	0.569	0.518	0.407	0.343	0.783	0.526	0.61	0.454	0.468	0.517	0.549	0.415	0.401	0.273	0.742	0.695	0.459	0.42	0.329
LCLC-97TM1	0.524	0.515	0.135	0.0952	0.0792	0.334	0.298	0.138	0.128	0.152	0.203	0.185	0.166	0.181	0.149	0.523	0.353	0.121	0.116	0.115
EMC-BAC-2	0.28	0.257	0.202	0.186	0.151	0.683	0.382	0.25	0.225	0.148	0.243	0.283	0.214	0.224	0.173	1.08	0.978	0.362	0.296	0.18
NCI-H1975	0.657	0.688	0.284	0.214	0.201	0.945	0.728	0.301	0.27	0.193	0.695	0.65	0.336	0.212	0.124	1.14	1.01	0.503	0.344	0.175
BEN	0.522	0.456	0.332	0.332	0.385	0.868	0.838	0.238	0.213	0.237	0.531	0.457	0.375	0.456	0.4	0.0634	0.063	0.0731	0.0469	0.0558
NCI-H23	0.456	0.24	0.132	0.153	0.149	0.427	0.367	0.202	0.179	0.187	0.27	0.249	0.165	0.208	0.15	0.677	0.562	0.334	0.175	0.143
NCI-H520	0.588	0.455	0.325	0.276	0.208	0.589	0.38	0.286	0.296	0.243	0.372	0.418	0.376	0.409	0.357	1.19	0.66	0.386	0.272	0.251
